{
  "source": "patent US9790503B2",
  "about": "“VHZ for diagnosis and treatment of cancer” (AGENCY FOR SCIENCE, TECHNOLOGY AND RESEARCH (A*STAR), priority 2007, dated 2017)",
  "biological_target": "T1, VHZ-GST (Homo sapiens, UniProt Q9BVJ7)",
  "T1 construct": "made in house",
  "T1 sequence (Q9BVJ7 1-150)": "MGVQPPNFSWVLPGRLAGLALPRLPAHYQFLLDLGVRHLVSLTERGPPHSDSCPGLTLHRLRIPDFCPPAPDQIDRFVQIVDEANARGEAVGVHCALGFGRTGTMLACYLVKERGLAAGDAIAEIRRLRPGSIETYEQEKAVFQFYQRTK",
  "experiment": "Tyrosine phosphatase assay (EnzChek kit, fluorogenic substrate)",
  "type": "biochemical",
  "details": "10 μM sodium orthovanadate added to the reaction; VHZ-GST 0.675 picomoles; fluorescence excitation/emission 358/452 nm",
  "method": "The EnzChek kit (Invitrogen, R22065) is used. As per the manufacturer's protocol, the fluorogenic substrate is reconstituted in the assay wells with buffer; the desired potential PTPases (0.675 picomole for each protein: VHZ-GST, VHZ-GST+Phosphatase inhibitor, VHZ(C95S)-GST, and control GST) are added to the wells and incubated 30 min or 90 min respectively. The fluorescence is then quantified using a Gemini XPS microplate spectrofluorometer (Molecular Devices). Fluorescence is measured at 10 minute intervals at the excitation and emission wavelengths of 358 and 452 nm, respectively. The phosphatase inhibitor sodium orthovanadate (10 μM) is used in the assay as a negative control.",
  "data": [
    {"smiles": "[Na+].[Na+].[Na+].[O]=[V]([O-])([O-])[O-]", "note": "[sodium orthovanadate]", "values": [
      {"measurement": "PTPase activity of VHZ", "value": "completely abolished"}
    ]}
  ]
}
